Test results reported in patent US9125913B2, “Bcl-2-selective apoptosis-inducing agents for the treatment of cancer and immune diseases” (AbbVie Inc., priority 2008, dated 2015).

Test system: GST-Bcl-2
Assay: TR-FRET binding assay, Bcl-2
Details: TR-FRET Ki values
Experimental: Tb-anti-GST antibody was purchased from Invitrogen (Catalog No. PV4216).
Representative compounds were serially diluted in dimethyl sulfoxide (DMSO) starting at 50 μM (2× starting concentration; 10% DMSO) and 10 μL were transferred into a 384-well plate.
The samples were then mixed on a shaker for 1 minute and incubated for an additional 3 hours at room temperature. For each assay, the probe/antibody and protein/probe/antibody were included on each assay plate as negative and positive controls, respectively. Fluorescence was measured on the Envision (Perkin Elmer) using a 340/35 nm excitation filter and 520/525 (F-Bak peptide) and 495/510 nm (Tb-labeled anti-Histidine antibody) emission filters.
The inhibition constant (Ki) is the dissociation constant of an enzyme-inhibitor complex or a protein/small molecule complex, wherein the small molecule is inhibiting binding of one protein to another protein or peptide. […] Inhibition constants were determined using Wang's equation (Wang Z-X., An Exact Mathematical Expression For Describing Competitive Binding Of Two Different Ligands To A Protein Molecule. FEBS Lett. 1995, 360:111-4).

SMILES	Binding selectivity ratio (Bcl-XL Ki/Bcl-2 Ki)
CC1(C)CCC(CN2CCN(c3ccc(C(=O)NS(=O)(=O)c4ccc(NCC5CN(CC#N)CCO5)c([N+](=O)[O-])c4)c(Oc4cccc5[nH]cnc45)c3)CC2)=C(c2ccc(Cl)cc2)C1 (stereo not drawn) [EXAMPLE 431, 2-(1H-benzimidazol-4-yloxy)-4-(4-{[2-(4-chlorophenyl)-4,4-dimethylcyclohex-1-en-1-yl]methyl}piperazin-1-yl)-N-{[4-({[4-(cyanomethyl)morpholin-2-yl]methyl}amino)-3-nitrophenyl]sulfonyl}benzamide]	677.36
CC1(C)CCC(CN2CCN(c3ccc(C(=O)NS(=O)(=O)c4cnc(OCC5CCOCC5)c(-c5nccs5)c4)c(Oc4ccc5[nH]ccc5c4)c3)CC2)=C(c2ccc(Cl)cc2)C1 [EXAMPLE 331, 4-(4-{[2-(4-chlorophenyl)-4,4-dimethylcyclohex-1-en-1-yl]methyl}piperazin-1-yl)-2-(1H-indol-5-yloxy)-N-{[6-(tetrahydro-2H-pyran-4-ylmethoxy)-5-(1,3-thiazol-2-yl)pyridin-3-yl]sulfonyl}benzamide]	>79.8
COCCCNc1ccc(S(=O)(=O)NC(=O)c2ccc(N3CCN(CC4=C(c5ccc(Cl)cc5)CC(C)(C)CC4)CC3)cc2Oc2cccc3[nH]ccc23)cc1[N+](=O)[O-] [EXAMPLE 318, 4-(4-{[2-(4-chlorophenyl)-4,4-dimethylcyclohex-1-en-1-yl]methyl}piperazin-1-yl)-2-(1H-indol-4-yloxy)-N-({4-[(3-methoxypropyl)amino]-3-nitrophenyl}sulfonyl)benzamide]	102.6
CN1CCC(Oc2ccc(S(=O)(=O)NC(=O)c3ccc(N4CCN(CC5=C(c6ccc(Cl)cc6)CC(C)(C)CC5)CC4)cc3Oc3ccc4[nH]ccc4c3)cc2[N+](=O)[O-])CC1 [EXAMPLE 353, 4-(4-{[2-(4-chlorophenyl)-4,4-dimethylcyclohex-1-en-1-yl]methyl}piperazin-1-yl)-2-(1H-indol-5-yloxy)-N-({4-[(1-methylpiperidin-4-yl)oxy]-3-nitrophenyl}sulfonyl)benzamide]	>2260.0
C[C@H](c1ccccc1-c1ccc(Cl)cc1)N1CCN(c2ccc(C(=O)NS(=O)(=O)c3ccc(NCC4CCOCC4)c([N+](=O)[O-])c3)c(Oc3cccc4[nH]ccc34)c2)CC1 [EXAMPLE 255, 4-{4-[(1R)-1-(4′-chloro-1,1′-biphenyl-2-yl)ethyl]piperazin-1-yl}-2-(1H-indol-4-yloxy)-N-({3-nitro-4-[(tetrahydro-2H-pyran-4-ylmethyl)amino]phenyl}sulfonyl)benzamide]	>84.2
O=C(NS(=O)(=O)c1ccc(NCC2CCOCC2)c([N+](=O)[O-])c1)c1ccc(N2CCN(Cc3ccccc3-c3ccc(Cl)cc3)CC2)cc1Oc1ccccc1 [Example 1, 4-{4-[(4′-chloro-1,1′-biphenyl-2-yl)methyl]piperazin-1-yl}-N-({3-nitro-4-[(tetrahydro-2H-pyran-4-ylmethyl)amino]phenyl}sulfonyl)-2-phenoxybenzamide]	85.4
CN(C)CCCNc1ccc(S(=O)(=O)NC(=O)c2ccc(N3CCN(Cc4ccccc4-c4ccc(Cl)cc4)CC3)cc2Oc2cccc3cnccc23)cc1[N+](=O)[O-] [Example 42, 4-{4-[(4′-chloro-1,1′-biphenyl-2-yl)methyl]piperazin-1-yl}-N-[(4-{[3-(dimethylamino)propyl]amino}-3-nitrophenyl)sulfonyl]-2-(isoquinolin-5-yloxy)benzamide]	80
CC1(C)CCC(CN2CCN(c3ccc(C(=O)NS(=O)(=O)c4ccc(OCC5(F)CCOCC5)c(Cl)c4)c(Oc4cccc5[nH]ncc45)c3)CC2)=C(c2ccc(Cl)cc2)C1 [EXAMPLE 464, N-({3-chloro-4-[(4-fluorotetrahydro-2H-pyran-4-yl)methoxy]phenyl}sulfonyl)-4-(4-{[2-(4-chlorophenyl)-4,4-dimethylcyclohex-1-en-1-yl]methyl}piperazin-1-yl)-2-(1H-indazol-4-yloxy)benzamide]	6432
CC1(C)CCC(CN2CCN(c3ccc(C(=O)NS(=O)(=O)c4ccc(NCCCN5CCNC(=O)C5)c([N+](=O)[O-])c4)c(Oc4ccc5[nH]ccc5c4)c3)CC2)=C(c2ccc(Cl)cc2)C1 [EXAMPLE 222, 4-(4-{[2-(4-chlorophenyl)-4,4-dimethylcyclohex-1-en-1-yl]methyl}piperazin-1-yl)-2-(1H-indol-5-yloxy)-N-[(3-nitro-4-{[3-(3-oxopiperazin-1-yl)propyl]amino}phenyl)sulfonyl]benzamide]	1275.3
CC1(C)CCC(CN2CCN(c3ccc(C(=O)NS(=O)(=O)c4ccc(OCC5CCOCC5)c([N+](=O)[O-])c4)c(Oc4ccc5[nH]ccc5c4)c3)CC2)=C(c2ccc(Cl)cc2)C1 [EXAMPLE 279, 4-(4-{[2-(4-chlorophenyl)-4,4-dimethylcyclohex-1-en-1-yl]methyl}piperazin-1-yl)-2-(1H-indol-5-yloxy)-N-{[3-nitro-4-(tetrahydro-2H-pyran-4-ylmethoxy)phenyl]sulfonyl}benzamide]	>6923.2
CC1(C)CCC(CN2CCN(c3ccc(C(=O)NS(=O)(=O)c4ccc(NCC5CCS(=O)(=O)C5)c([N+](=O)[O-])c4)c(Oc4cccc5[nH]ccc45)c3)CC2)=C(c2ccc(Cl)cc2)C1 (stereo not drawn) [EXAMPLE 326, 4-(4-{[2-(4-chlorophenyl)-4,4-dimethylcyclohex-1-en-1-yl]methyl}piperazin-1-yl)-N-[(4-{[(1,1-dioxidotetrahydrothien-3-yl)methyl]amino}-3-nitrophenyl)sulfonyl]-2-(1H-indol-4-yloxy)benzamide]	>5708.8
CC1(C)CCC(CN2CCN(c3ccc(C(=O)NS(=O)(=O)c4ccc(NCCN5CCCC5=O)c([N+](=O)[O-])c4)c(Oc4ccc5[nH]ccc5c4)c3)CC2)=C(c2ccc(Cl)cc2)C1 [EXAMPLE 251, 4-(4-{[2-(4-chlorophenyl)-4,4-dimethylcyclohex-1-en-1-yl]methyl}piperazin-1-yl)-2-(1H-indol-5-yloxy)-N-[(3-nitro-4-{[2-(2-oxopyrrolidin-1-yl)ethyl]amino}phenyl)sulfonyl]benzamide]	1438.5
CC(C)[C@H](CO)Nc1ccc(S(=O)(=O)NC(=O)c2ccc(N3CCN(CC4=C(c5ccc(Cl)cc5)CC(C)(C)CC4)CC3)cc2Oc2ccc3[nH]ccc3c2)cc1[N+](=O)[O-] [EXAMPLE 371, 4-(4-{[2-(4-chlorophenyl)-4,4-dimethylcyclohex-1-en-1-yl]methyl}piperazin-1-yl)-N-[(4-{[(1R)-1-(hydroxymethyl)-2-methylpropyl]amino}-3-nitrophenyl)sulfonyl]-2-(1H-indol-5-yloxy)benzamide]	>78.8
CNc1ccc(S(=O)(=O)NC(=O)c2ccc(N3CCN(CC4=C(c5ccc(Cl)cc5)CC(C)(C)CC4)CC3)cc2Oc2ccc3[nH]ccc3c2)cc1S(=O)(=O)C(F)(F)F [EXAMPLE 328, 4-(4-{[2-(4-chlorophenyl)-4,4-dimethylcyclohex-1-en-1-yl]methyl}piperazin-1-yl)-2-(1H-indol-5-yloxy)-N-({4-(methylamino)-3-[(trifluoromethyl)sulfonyl]phenyl}sulfonyl)benzamide]	>355.0
CC(C1=C(c2ccc(Cl)cc2)CC(C)(C)CC1)N1CCN(c2ccc(C(=O)NS(=O)(=O)c3ccc(NN4CCN(C)CC4)c([N+](=O)[O-])c3)c(Oc3ccc4[nH]ccc4c3)c2)CC1 (stereo not drawn) [EXAMPLE 254, 4-(4-{1-[2-(4-chlorophenyl)-4,4-dimethylcyclohex-1-en-1-yl]ethyl}piperazin-1-yl)-2-(1H-indol-5-yloxy)-N-({4-[(4-methylpiperazin-1-yl)amino]-3-nitrophenyl}sulfonyl)benzamide]	421.7
CC1(C)CCC(CN2CCN(c3ccc(C(=O)NS(=O)(=O)c4cnc(O[C@@H]5CCN(C(CF)CF)C5)c(Cl)c4)c(Oc4cccc5[nH]ncc45)c3)CC2)=C(c2ccc(Cl)cc2)C1 [EXAMPLE 434, N-{[5-chloro-6-({(3R)-1-[2-fluoro-1-(fluoromethyl)ethyl]pyrrolidin-3-yl}oxy)pyridin-3-yl]sulfonyl}-4-(4-{[2-(4-chlorophenyl)-4,4-dimethylcyclohex-1-en-1-yl]methyl}piperazin-1-yl)-2-(1H-indazol-4-yloxy)benzamide]	1459
CC1CC(=O)NN=C1c1ccc(S(=O)(=O)NC(=O)c2ccc(N3CCN(Cc4ccccc4-c4ccc(Cl)cc4)CC3)cc2Oc2ccccc2)cc1 (stereo not drawn) [Example 29, 4-{4-[(4′-chloro-1,1′-biphenyl-2-yl)methyl]piperazin-1-yl}-N-{[4-(4-methyl-6-oxo-1,4,5,6-tetrahydropyridazin-3-yl)phenyl]sulfonyl}-2-phenoxybenzamide]	>55.4
CC1(C)CCC(CN2CCN(c3ccc(C(=O)NS(=O)(=O)c4ccc(NCCc5ccc(S(N)(=O)=O)cc5)c([N+](=O)[O-])c4)c(Oc4ccc5[nH]ccc5c4)c3)CC2)=C(c2ccc(Cl)cc2)C1 [EXAMPLE 376, N-{[4-({2-[4-(aminosulfonyl)phenyl]ethyl}amino)-3-nitrophenyl]sulfonyl}-4-(4-{[2-(4-chlorophenyl)-4,4-dimethylcyclohex-1-en-1-yl]methyl}piperazin-1-yl)-2-(1H-indol-5-yloxy)benzamide]	>29.5
